Laboratory results reported in patent US20030212013A1, “Use of amp kinase activators for treatment type 2 diabetes and insulin resistance” (priority 2002, published 2003).
Values joined by “and” are separate entries in the source; they are usually repeats but may differ in a detail not shown here. Equal values may be shown once.

Assays:
[1] = AICAR 0.25 mg/g body weight; normal (C57/BJ6), insulin deficient diabetic (C57/BJ6STZ) and insulin resistant diabetic (KKAy) mice; cited from earlier work
[2] = Preliminary time course of muscle ZMP after AICAR injection; format: in vivo, rat; conditions: AICAR 1 mg/g s.c., n=3, preliminary experiments
Description: (§1) To determine the effect of chronic activation of AMPK, rats were injected (between 8 and 10 am.) subcutaneously with AICAR (1 mg/g body weight) or saline vehicle for five days in succession. This dose was shown in preliminary experiments to increase ZMP levels in the muscle to 0.57±0.06 μmol/g after 15 min, to 0.79±0.06 μmol/g after 60 min, to 0.69±0.06 μmol/g after 90 min, and to 0.60±0.06 μmol/g after 120 minutes (n=3 at each time point). Beginning with the first injection, controls were pair fed with AICAR-injected rats. Saline injected controls ate 17±1 g and AICAR injected rats ate 18±1 g of food during the 24 hour period prior to blood and tissue collection. Rats were anesthetized by intraperitoneal injection of pentobarbital (22-25 hrs following the last AICAR injection) and epitrochlearis, and gastrocnemius/plantaris muscles were collected and frozen as described above. Muscles were kept under liquid nitrogen until analyzed.

acetyl-CoA carboxylase = assay: Citrate dependence of acetyl-CoA carboxylase in muscles of AICAR-injected rats; format: in vivo, rat; conditions: 1 hour following AICAR 1 mg/g
From the text: (§2) All procedures were approved by the Institutional Animal Care and Use Committee. Male Sprague-Dawley rats weighing 197±5 grams (Sasco, Wilmington, Mass. 01887) were housed in individual cages in a temperature (22-25 C.) and light-controlled (12:12-h light-dark cycle) room and were given food (Harlan Teklad rodent diet, Madison, Wis.) and water ad libitum. To determine acute in vivo effects of AICAR, a jugular catheter was installed and exteriorized on the back of the neck three days prior to the day of the experiment. This catheter was implanted for the purpose of allowing rapid anesthesia of the rat and rapid blood and tissue collection. Rats were then given AICAR (1 mg/g body weight) subcutaneously in sterile 0.9% NaCl or were given 0.9% NaCl (n=7 in each group). One hour following the subcutaneous injection of AICAR, rats were anesthetized by intravenous injection of pentobarbital (4.8 mg/100 g body weight). The epitrochlearis and gastrocnemius/plantaris muscles were quickly removed and rapidly frozen with stainless steel clamps at liquid nitrogen temperature. Blood was collected via the abdominal aorta and a perchloric acid extract was prepared (0.5 ml blood to 2.0 ml 10% HClO4), neutralized and utilized for analysis of glucose and lactate.
Muscles from rats killed 1 hour following injection of AICAR or saline were analyzed for AMPK, citrate-dependence of acetyl-CoA carboxylase, malonyl-CoA, glycogen, ZMP, ZTP, ATP, and ADP. Hassid, W Z. & S. Abraham Methods Enzymol. […] Blood glucose and lactate were measured by enzymatic techniques. […]
Referring to FIG. 2, the citrate dependence of acetyl-CoA carboxylase in gastrocnemius/plantaris muscles of rats 1 hour following injection with AICAR (1 mg/g body weight) or saline is illustrated. Standard errors were determined but are not shown. […] Because of the limited amount of tissue, the entire citrate activation curve could not be determined for epitrochlearis muscle, but the activity of ACC at a physiological concentration of citrate (0.2 mM) was reduced from 0.50±0.10 nmol/g/min to 0.10±0.03 nmol/g/min.

[3] = Tissue and blood metabolites of rats after acute AICAR injection; format: in vivo, rat; conditions: AICAR 1 mg/g s.c., 60 minutes following injection, mean ± SEM n=7
From the text: as §2
(§3) Muscles from rats killed 1 hour following injection of AICAR or saline were analyzed for AMPK, citrate-dependence of acetyl-CoA carboxylase, malonyl-CoA, glycogen, ZMP, ZTP, ATP, and ADP. Hassid, W Z. & S. Abraham Methods Enzymol. 3:35-36 (1957); McGarry, J. D. et al. J. Biol. Chem. 253:[…] (1978). Blood glucose and lactate were measured by enzymatic techniques. Bergmeyer, H. U., et al. D-Glucose determination with hexokinase and glucose-phosphate dehydrogenase. In: Methods of Enzymatic Analysis, edited by H. U. Bergmeyer. New York: Academic, 1196-1201 (1974); Gutmann I., & A. W. Wahlefeld. L-(+)-Lactate. Determination with lactate dehydrogenase and NAD. In: Methods of Enzymatic Analysis, edited by H. U. Bergmeyer. New York: Academic, 1464-1468 (1974).

[4] = Muscle glycogen and food intake after five daily AICAR injections; format: in vivo, rat; conditions: 24 hrs following the last of five daily AICAR injections; control 43±2
Description: as §1, with “Rats were anesthetized by intraperitoneal injection of pentobarbital (22-25 hrs following the last AICAR injection) and epitrochlearis, and gastrocnemius/plantaris muscles were collected and frozen as described above.” left out
(§4) Muscles from rats killed 22-25 hours following the fifth AICAR injection were analyzed for glycogen and GLUT4. […] Proteins of these homogenates were separated by SDS-PAGE using 10% resolving gels (Tris-HCl ready gels, BIO-RAD, Hercules, Calif.). […] Relative amounts of GLUT4 were then quantified using a Hewlett Packard ScanJet 6200C and SigmaGel software (SPSS, Inc, Chicago, Ill.). Total intensity of GLUT4 spots on the developed hyperfilm was expressed as a fraction of intensity shown by a GLUT4 standard run on the same gel. […]

[5] = Tolerability of daily AICAR injections; format: in vivo, rat; conditions: rats 197±5 grams, 1 mg/g body weight daily
Description: ATP and ADP were not influenced by the injection with AICAR. ZTP increased from non-detectable levels to 1.2 μmol/g. […] Muscle glycogen and liver glycogen were not acutely influenced 60 minutes following a single injection of AICAR.

GLUT4 = assay: Total GLUT4 protein (Western blot) in muscles after chronic AICAR injection; format: in vivo, rat
Description: as §1, with “This” for “To determine the effect of chronic activation of AMPK, rats were injected (between 8 and 10 am.) subcutaneously with AICAR (1 mg/g body weight) or saline vehicle for five days in succession. This”
as §4, with “GLUT4. For GLUT4 measurement muscle was ground to powder under liquid nitrogen. See Etgen, G. J., et al. Am. J. Physiol.” for “GLUT4.”

hexokinase = assay: Hexokinase activity in muscles after 5 days of AICAR injections; format: in vivo, rat; conditions: 5 days AICAR 1 mg/g/d, both epitrochlearis and gastrocnemius/plantaris, p<0.001
Description: as §1
Hexokinase activity was determined spectrophotometrically at 30 C on 700×g supernatants of the same homogenate as was used for GLUT4 measurement Uyeda, K. & E. Racker, J Biol Chem 240:4682-4688 (1965).

AMPK [6] = assay: AMPK activity in muscles of rats following AICAR injection; format: in vivo, rat; conditions: for AMPK activity increase vs saline: 1 hour following AICAR 1 mg/g injection
From the text: as §2, §3
Referring to FIG. 1, the AMPK activity in epitrochlearis and gastrocnemius/plantaris muscles of rats 1 hour following injection with 1 mg/g body weight AICAR or with saline is shown. Values are means ±SEM. […] AMPK activity was increased 2.4 fold in gastrocnemius/plantaris muscles and 4 fold in the epitrochlearis muscles 1 hour following the AICAR injection.

AMPK [7] = conditions: analogues of 5'-AMP; cited from earlier work
[8] = resting rats injected with AICAR

NC(=O)c1ncn([C@@H]2O[C@H](CO)[C@@H](O)[C@H]2O)c1N [AICAR, 5-aminoimidazole-4-carboxamide ribonucleoside]
Duration of acute decrease in blood glucose [1]: 4 to 6 h | ZMP level in muscle ([2]; after 15 min): 0.57 ± 0.06 µmol/g | ZMP level in muscle ([2]; after 60 min): 0.79 ± 0.06 µmol/g | ZMP level in muscle ([2]; after 90 min): 0.69 ± 0.06 µmol/g | ZMP level in muscle ([2]; after 120 minutes): 0.60 ± 0.06 µmol/g | Activity of ACC at physiological citrate (0.2 mM) (acetyl-CoA carboxylase; epitrochlearis, saline 0.50±0.10): 0.10±0.03 nmol/g/min | ACC citrate activation constant (Ka) (acetyl-CoA carboxylase; gastrocnemius/plantaris, saline 3.1±0.1): 13.0 ± 0.3 mM | ACC maximal velocity (Vmax) as a function of citrate concentration (acetyl-CoA carboxylase; gastrocnemius/plantaris, saline 60.1±1.3): 32.4 ± 1.3 nmol/g/min | Muscle ADP ([3]; gastrocnemius/plantaris): 0.97 ± 0.02 µmol/g | Muscle ATP ([3]; gastrocnemius/plantaris): 7.6 ± 0.1 µmol/g | Muscle Glycogen ([3]; gastrocnemius/plantaris): 44 ± 4 µmol/g | Muscle Malonyl-CoA ([3]; gastrocnemius/plantaris): 0.6 ± 0.1 nmol/g | Muscle ZMP ([3]; gastrocnemius/plantaris): 0.91 ± 0.02 µmol/g | Muscle ZTP ([3]; gastrocnemius/plantaris): 1.2 µmol/g and 1.18 ± 0.09 µmol/g | Blodd Glucose [3]: 5.6 ± 0.6 mM | Blood Lactate [3]: 6.8 ± 0.5 mM | Liver Glycogen [3]: 344 ± 44 µmol/g | Gastrocnemius/plantaris glycogen [4]: 87±4 μmol glucose units/g | Tolerance of injections [5]: no apparent discomfort | GLUT4 in epitrochlearis and gastrocnemius/plantaris (GLUT4; AICAR 1 mg/g/d for five days, vs saline, p<0.001 epitrochlearis, p<0.01 gastrocnemius): marked increases | Total GLUT4 (GLUT4; larger rats (350-450 grams), AICAR 0.5 mg/g body weight, n=5/group, control 0.32±0.05, preliminary experiments): 0.76±0.08 arbitrary units | Hexokinase activity increase over control values (hexokinase): approximately 2.8 fold | AMPK activity increase vs saline (AMPK [6]; epitrochlearis muscles): 4 fold | AMPK activity increase vs saline (AMPK [6]; gastrocnemius/plantaris muscles): 2.4 fold | Duration of increase in muscle AMPK activity (AMPK [6]; [8]): at least two | Time to increase in muscle AMPK activity after injection (AMPK [6]; [8]): ≤ 15 min

Nc1ncnc2c([C@@H]3O[C@H](COP(=O)(O)O)[C@@H](O)[C@H]3O)[nH]nc12 [Formycin A 5′-monophosphate]
Potency of AMPK activation in vitro (AMPK [7]): less potently

NC(=O)c1ncn([C@@H]2O[C@H](COP(=O)(O)O)[C@@H](O)[C@H]2O)c1N [ZMP]
Potency of AMPK activation in vitro (AMPK [7]): less potently

Nc1ncnc2c1ncn2[C@@H]1O[C@H](COP(N)(=O)O)[C@@H](O)[C@H]1O [adenosine 5′-phosphoramidate]
Potency of AMPK activation in vitro (AMPK [7]): more potently

Nc1ncnc2c1ncn2[C@@H]1O[C@H](COP(O)(O)=S)[C@@H](O)[C@H]1O [adenosine-5′-thiomonophosphate]
Potency of AMPK activation in vitro (AMPK [7]): more potently
